Entries after “also recorded” stand apart in the source; their conditions may differ.
Molecular target: T1, microsomal recombinant human cytochrome P450 2A6 (CYP2A6) (Homo sapiens, UniProt P11509)
T1 sequence (P11509 1-494): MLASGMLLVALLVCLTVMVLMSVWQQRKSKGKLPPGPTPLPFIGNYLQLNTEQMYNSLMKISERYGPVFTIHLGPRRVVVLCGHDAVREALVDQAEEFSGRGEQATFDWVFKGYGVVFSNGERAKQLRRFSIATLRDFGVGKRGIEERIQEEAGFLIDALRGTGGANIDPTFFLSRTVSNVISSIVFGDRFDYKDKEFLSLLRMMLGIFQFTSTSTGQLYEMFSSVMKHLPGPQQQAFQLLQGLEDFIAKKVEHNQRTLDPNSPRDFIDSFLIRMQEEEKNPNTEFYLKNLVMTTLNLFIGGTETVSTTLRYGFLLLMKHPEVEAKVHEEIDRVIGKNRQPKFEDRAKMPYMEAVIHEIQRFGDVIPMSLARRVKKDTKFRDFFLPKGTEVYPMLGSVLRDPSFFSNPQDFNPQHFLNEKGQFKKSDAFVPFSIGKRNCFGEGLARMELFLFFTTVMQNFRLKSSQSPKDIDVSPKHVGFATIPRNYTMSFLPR
Test: Vivid fluorescence-based CYP2A6 inhibition screening
Type: biochemical

SMILES	IC50	CYP2A6 inhibition (flavoring agent at 500 μM)	CYP2A6 inhibition (flavoring agent up to 500 μM (highest concentration))
O=Cc1ccccc1 [Benzaldehyde, benzaldehyde]	3 µM	–	–
O=C/C=C/c1ccccc1 [Cinnamaldehyde, trans-cinnamaldehyde]	1.1 µM	–	–
CCOc1cc(C=O)ccc1O [Ethyl vanillin, ethyl-vanillin]	69.4 µM	near-maximal inhibition	–
CC(=O)OCCC(C)C [Isoamyl Acetate, isoamyl acetate]	> 500 µM	–	negligible inhibition; also recorded: no inhibition
COc1cc(C=O)ccc1O [Vanillin, vanillin]	70 µM	near-maximal inhibition	–

Source: paper PMC7422938 (Chemical research in toxicology, 2020)
